Experimental findings from patent US6046231A, “Use of 4'-bromoflavone in a cancer chemopreventative composition and method” (The Board of Trustees of the University of Illinois, priority 1999, dated 2000) are described below.

“Also recorded” adds a separate entry of the source. Read-outs that look alike come from different tables or passages of the source.

For series [1], the system named is DMBA-induced mammary tumors. Nature of the series: Inhibition of DMBA-induced mammary carcinogenesis in rats. The class given is in vivo, female Sprague Dawley rat. Conditions: for tumor multiplicity (FIG. 9): control 2.63; for mammary tumor multiplicity: control 2.75; for mammary tumor incidence: control 88.9%; for tumor incidence (FIG. 9): control 89.5. As to the method:
Inhibition of DMBA-induced Mammary Carcinogensis in Rats. On the basis of a 3-week feeding study, maximum tolerated doses were evaluated, and suitable doses were selected for the study of inhibition of DMBA-induced mammary carcinogenesis in rats. Virgin, female Sprague Dawley rats were obtained from Harlan/Sprague-Dawley at 35 days of age. All animals were placed on a diet of Teklad 4% Rat/Mouse chow at this time. After a quarantine period of 1 week, at 42 days of age, the animals were randomized by weight into six groups and placed on the appropriate experimental diet containing 2000 and 4000 mg 4'-bromoflavone/kg diet. At 50 days of age, the animals received a single i.g. dose of 15 mg of DMBA in sesame oil (or vehicle only) following an overnight fast. The rats were maintained on the 4'-bromoflavone diet for one additional week, and then returned to the basal diet without test agent at 57 days of age. During the experiment, all animals were weighed weekly. Palpation for mammary tumors began 3 weeks after the animals received the DMBA, and continued until termination of the study (120 days post DMBA). The date of appearance and location of all tumors was recorded. Animals were observed twice daily to assess their general health. Moribund animals were sacrificed by CO2 asphyxiation. Moribund animals or animals found dead were necropsied immediately. At the termination of the experiment, all mammary tumors were excised and weighed, and mean tumor weight was established. Tumors for Group 2-5 were frozen. The abdominal/inguinal glands of Group 8 were disected free of lymph nodes; one side was frozen, the other side was fixed. Incidence was evaluated with Fisher's exact test and the Logrank test was used for tumor incidence rate. Tumor multiplicity was calculated using Armitage's test for trends in proportions. Latency and tumor weight were evaluated by an unpaired t-test. Survival was analyzed with log-rank analysis.
Inhibition of DMBA-induced Mammary Tumor Carcinogenesis in Rat. Maximum dose tolerance (MDT) studies (data not included) were performed prior to conducting the chemopreventative studies of 4'-BF in animals. Briefly, a test agent was examined in a three-week study to determine the maximum dose that can be administered without causing suppression of body weight gain or inducing other gross manifestations of toxicity and to determine the effective dose in term of induction of phase II detoxifying enzymes. According to the MDT study, two doses of 4'-BF (2000 and 4000 mg/kg diet) were used for the chemopreventative studies.

For series [2], the system named is Hepa 1c1c7 cells. Briefly: Hepa 1c1c7 cell viability (cytotoxicity). In kind it is cell-based, murine. Conditions: for IC50: read-out: IC50, concentration for 50% inhibition of cell viability.
For series [3], the system named is HepG2 cells (B[α]P-DNA adducts). Nature of the series: Binding of metabolically activated [3H]B[α]P to DNA of cultured HepG2 cells. In kind it is cell-based. Conditions: Homo sapiens, read-out: IC50, formation of B[α]P-DNA adducts, HepG2. As to the method: Effect of 4'-BF on the Binding of Metabolically Activated [^3 H]B[α]P to DNA of Cultured Cells. HepG2 cells or MCF-7 cells were plated at a density of 1×10^6 cells/dish in 6 cm Petri dishes and allowed to incubate for 18 hours. Fresh media containing test samples were added to the cells 2 hours prior to the addition of 1 μM [^3 H]B[α]P (10 Ci/mmol) The test compound and tritiated carcinogen then were incubated for 6 hours. Following incubation, genomic DNA was extracted by the method described by Sharma et al., with minor modifications. Briefly, the cells were washed three times with PBS and harvested by incubation with 0.5 ml of proteinase K (100 μg/ml) in 0.2 M Tris-0.1 M EDTA (pH 8.5) for 10 min at 37° C. The cells were gently scraped from the dishes, transferred to 50 μl of 10% SDS solution, and incubated for 3 hours at 55° C. […] An aliquot of harvested DNA was used for measuring the relative absorbencies at 260 and 280 nm (A2360 nm/A2380 nm=1.7-1.9), and the DNA content was determined by absorbance at 260 nm (1 A2360 nm unit=50 μg). The remaining sample was used for the determination of radioactivity. All experiments were performed in triplicate; percentage inhibition of carcinogen-DNA binding mediated by test samples was calculated as follows: % inhibition=[1-(dpm per μg DNA test cells/dpm per μg DNA control cells)]×100.

Consider `O=c1cc(-c2ccc(Br)cc2)oc2ccccc12` [4'-Bromoflavone], for which the entries for the “tumor multiplicity (FIG. 9)” value in series [1] (2000 mg/kg diet) and in series [1] (4000 mg/kg diet) were 0.65 tumors/rat and 0.20 tumors/rat, respectively. For the same compound, the mammary tumor multiplicity in series [1] (2000 mg/kg diet) was determined as 0.20; in series [1] (4000 mg/kg diet), 0.15. Also, the values for the mammary tumor incidence in series [1] (2000 mg/kg diet) and in series [1] (4000 mg/kg diet) were 25% and 15%, respectively. The figures for the “tumor incidence (FIG. 9)” value in series [1] (2000 mg/kg diet) and in series [1] (4000 mg/kg diet) were 30% and 20%, respectively. In addition, the tumor latency entry in series [1] (2000 or 4000 mg/kg diet, listed as 4'-BF) is listed as “enhanced greatly; also recorded: greatly increased the tumor latency (P<0.001); also recorded: significantly increased (P<0.01)”. The “incidence and multiplicity of mammary tumors” value in series [1] (DMBA-induced) is listed as “significantly inhibited”. Also, the IC50 in series [2] (Hepa 1c1c7 cells) is at least 166 µM; in series [2] (Mus musculus, Hepa-1c1c7, Hepa 1c1c7 cells), above 166 µM; in series [3], around 3.1 µM. The “times less toxic than sulforaphane” value in series [2] (compared to sulforaphane) is reported as “about 15 times”.
